Experimental data as given in patent US20260108547A1, “LEVERAGING L-FUCOSE-MEDIATED SIGNALING TO INDUCE MONOCYTE-DERIVED DENDRITIC CELL POLARIZATION” (H. LEE MOFFITT CANCER CENTER AND RESEARCH INSTITUTE, INC., priority 2022, published 2026).

How the values were obtained:
SW1 tumors [1] = test: Volumetric tumor growth, SW1 melanoma in C3H/HeN mice (incl. immunodepletion, FTY720, anti-PD1); assay type: in vivo, mouse; settings: SW1 model
Description: All animals were housed at the Vincent A. Stabile Research building animal facility at H. Lee Moffitt Cancer Center & Research Institute, which is fully accredited by the Association for Assessment and Accreditation of Laboratory Animal Care International (AAALAC, #434), and are managed in accordance with the Guide for the Care and Use of Laboratory Animals (“The Guide”), the Animal Welfare Regulations Title 9 Code of Federal Regulations Subchapter A, “Animal Welfare”, Parts 1-3 (AWR), the Public Health Service Policy on Humane Care and Use of Laboratory Animals (PHS Policy), and by the USF Institutional Animal Care and Use Committee's Principles and Procedures of Animal Care and Use (IACUC Principles). The experiments and protocols detailed in this study received institutional approval by the Moffitt IACUC (RIS00001625). Four-to-six-week-old female C3H/HeN and male C57BL6 mice were purchased from Charles Rivers Laboratories for the indicated experiments. Four-to-six-week-old male NSG mice from the Lau laboratory breeding colony were used for the indicated experiments. Power calculations were used to determine mouse cohort sizes to detect significant changes in tumor sizes. In general, 10 mice per indicated cohort to accommodate for incidental loss of mice due to issues beyond our control (e.g., incidental tumor ulceration that required exclusion from the study). Mouse tumor volumes were measured using length, width and depth divided by 2. At each experimental endpoint, mice were humanely euthanized using CO2 inhalation in accordance to the American Veterinary Medical Association guidelines.
For all mouse models, 1×10^6 melanoma cells were injected subcutaneously in the right hind flanks of each mouse. […] This dosage is within ranges for dietary supplementation with L-fucose and other similar dietary sugars (e.g., D-mannose) in other rodent studies. When the tumors reached −2 cm^3, the animals were sacrificed, and the tumors either processed for flow cytometric profiling or for histological analysis as indicated.
(§1) Control vs. mFuk±L-fucose models (FIG. 1 & FIG. 8): SW1 or SM1 mouse melanoma cells were injected into syngeneic C3H/HeN (or NSG) female or C57BL/6 male mice, respectively, as follows: parental SW1 cells for FIG. 1A; parental SM1 cells for FIG. 1E; SW1 cells stably expressing either empty vector (EV) or mouse fucose kinase (mFuk) for FIG. 1L; and parental SW1 cells for FIG. 1M.
as §1, with “L-fucose±FTY720” for “mFuk±L-fucose”, “2):” for “1 & FIG. 8):”, “respectively. Cells were injected” for “respectively,”, “1M. FTY720 was administered at 20 μg every 2 days starting on Day 12, just prior to the initiation of LF, until endpoint.” for “1M.”
Immunodepletion mouse models (FIG. 1 & FIG. 8): Three days prior to tumor engraftment, PBS (control) or ˜300 μg α-CD4 (20 mg/kg, for immunodepletion, GK1.5, Bioxcell (West Lebanon, NH)) or 0-CD8 (20 mg/kg, for immunodepletion, 2.43, Bioxcell (West Lebanon, NH)) was administered by intraperitoneal injection into the indicated cohorts of mice. Injections of immunodepletion antibody or PBS were continued every 3-4 days until endpoint. Syngeneic recipient C3H/HeN female or C57BL/6 male mice were injected with SW1 or SM1 cells, respectively. […]

HLA-DRB1 = test: qRT-PCR and immunoblot of HLA-DRB1 mRNA and protein levels in melanoma cells; assay type: cell-based, human; settings: 250 μM
Experimental: Cells were lysed on ice in RIPA lysis buffer (25 mM Tris-HCl pH 7.6, 150 mM NaCl, 5 mM EDTA, 1% NP-40 or 1% Triton X-100, 1% sodium deoxycholate, 0.1% SDS in diH2O+protease and phosphatase inhibitors (ThermoFisher Scientific (Waltham, MA)), briefly sonicated, pelleted, and the resulting lysates were normalized by protein concentration using DC assay (BioRad Laboratories, (Hercules, CA)). The indicated samples were subjected to (12%) SDS-PAGE and immunoblot analysis using the indicated antibodies. Immunoblot imaging and analysis was performed using either an Odyssey FC scanner and ImageStudio (LiCor Biosciences, Lincoln, NE) or film.
RNA from cells subjected to the indicated treatments was extracted using Gene Elute Mammalian Total RNA Extraction System (Millipore Sigma (St. Louis, MO)). RNA was reversed transcribed to cDNA using High-Capacity cDNA Reverse Transcription Kit (ThermoFisher Scientific (Waltham, MA)). qRT-PCR analysis was performed using FastStart Universal SYBR Green Master Mix (Rox) (Roche Diagnostics, (Indianapolis, IN)) using a BioRad CFX96 Real-time system (BioRad Laboratories, (Hercules, CA)). The qRT-PCR cycles used were as follows: 95° C. for 10 min, 35 cycles of 95° C. for 15 seconds, 55° C. for 60 seconds,
and 72° C. for 30 seconds. Expression of the indicated genes was normalized to histone H3A expression. […]

SW1 tumors [2] = test: Immunofluorescent (AAL) analysis of mouse tumor tissue fucosylation; assay type: in vivo; settings: oral L-fuc; SW1 model
Experimental: In general, paraffin-embedded FFPE tumor tissue sections (or the TMA slide) were melted at 70° C. for 30 min. The slides were further de-paraffinizeded using xylene and rehydrated in serial alcohol washes. The slides were pressure cooked at 15 PSI for 15 min in a 1×DAKO antigen retrieval buffer (Agilent Technologies (Santa Clara, CA)). The tumor sections were subject to two 5-min standing washes in PBS prior to blocking in 1× Carb-Free Blocking Solution (Vector Labs (Burlingame, CA)) for 2-3h. The slides were next washed twice and incubated with indicated lectin and/or antibodies.
For assessment of mouse tumor fucosylation, FFPE tumor sections were immunostained with FITC-conjugated AAL lectin (0.4 μg/mL, Vector Laboratories (Burlingame, CA)) and rabbit anti-Mart1+rabbit anti-S100 (melanoma marker cocktail). The slides were mounted with Vectashield+DAPI (Vector Laboratories (Burlingame, CA)). Four representative microscopy images per tumor were acquired using a Keyence BZ-X710, and images were process and analyzed using FUI (NIH) as follows: melanoma marker-positive regions were assigned as regions of interest (ROI) in which we measured Integrated density of AAL signal. Integrated densities of control tumors were assigned as 1, and Integrated AAL density values of experimental tumors were divided by control to produce relative fold changes and plotted as column charts.

SMILES: C[C@H](O)[C@@H](O)[C@@H](O)[C@H](O)C=O [L-fucose]
- reduction of tumor growth (SW1 tumors [1]; CD4+T cell depletion): completely abrogated
- efficacy of anti-PD1 when combined with oral L-fuc (SW1 tumors [1]; L-fuc in combination with anti-PD1): did not enhance efficacy of anti-PD1
- reduced tumor growth (SW1 tumors [1]; control and CD8+ T cell-depleted mice): > 50%
- reduced tumor growth (SW1 tumors [1]; oral L-fuc): ~50%
- HLA-DRB1 mRNA and protein levels (HLA-DRB1): remained unchanged
- increased tumor fucosylation (SW1 tumors [2]): ~2 fold
